According to patent US8835646B2, “Organic compounds” (Novartis AG, priority 2005, dated 2014):
Like-named read-outs stand apart in the source and are kept apart here.

How the values were obtained:
human aromatase = molecular target: T1, human aromatase (Homo sapiens, UniProt P11511); assay: human aromatase assay (Supersomes, DBF substrate, fluorescence); type: biochemical; details: for inhibition at 10 µM: 10000 nM
T1 construct: purchased Gentest (Woburn, Mass.)
T1 sequence (P11511 1-503): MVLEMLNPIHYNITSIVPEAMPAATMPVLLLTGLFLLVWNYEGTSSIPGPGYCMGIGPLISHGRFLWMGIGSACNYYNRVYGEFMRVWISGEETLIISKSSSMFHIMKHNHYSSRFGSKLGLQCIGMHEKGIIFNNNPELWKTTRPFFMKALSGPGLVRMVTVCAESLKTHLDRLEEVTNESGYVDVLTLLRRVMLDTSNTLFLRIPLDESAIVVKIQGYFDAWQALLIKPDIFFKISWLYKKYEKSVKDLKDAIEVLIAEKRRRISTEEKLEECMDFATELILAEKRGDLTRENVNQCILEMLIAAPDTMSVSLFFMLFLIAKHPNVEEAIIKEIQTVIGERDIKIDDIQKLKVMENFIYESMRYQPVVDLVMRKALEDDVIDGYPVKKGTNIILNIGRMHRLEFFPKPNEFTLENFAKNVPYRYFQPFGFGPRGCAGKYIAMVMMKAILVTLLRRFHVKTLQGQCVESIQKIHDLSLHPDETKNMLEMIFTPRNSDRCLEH
From the text: (§1) Human adrenocortical carcinoma NCl-H295R cell line is obtained from American Type Culture Collection (Manassas, Va.). Insulin/transferrin/selenium (ITS)-A supplement (100×), DMEM/F-12, antibiotic/antimycotic (100×), and fetal calf serum (FCS) are purchased from Gibco (Grand Island, N.Y.). Anti-mouse PVT scintillation proximity assay (SPA) beads and NBS 96-well plates are obtained from Amersham (Piscataway, N.J.) and Corning (Acton, Mass.), respectively. Solid black 96-well flat bottom plates are purchased from Costar (Corning, N.Y.). Aldosterone and angiotensin (Ang II) are purchased from Sigma (St. Louis, Mo.). D-[1,2,6,7-^3H(N)]aldosterone was acquired from PerkinElmer (Boston, Mass.). Nu-serum was a product of BD Biosciences (Franklin Lakes, N.J.). The NADPH regenerating system, dibenzylfluorescein (DBF), and human aromatase Supersomes® are obtained from Gentest (Woburn, Mass.).
To measure aromatase activity, the human aromatase assay is performed in 96-well flat bottom plates according to a published protocol (Stresser et al, 2000) with minor modifications. Briefly, 10 μl of an NADPH regenerating system containing 2.6 mM NADP^+, 6.6 mM glucose 6-phosphate, 6.6 mM MgCl2, and 0.8 U/ml glucose-6-phosphate dehydrogenase in 50 mM potassium phosphate, pH 7.4, is pre-incubated with the test compound at a desired concentration at 30° C. for 10 min in a total volume of 100 μl. Afterwards, 4 pmol of human aromatase, 20 μg of control microsomal protein, and 4 μM DBF in 100 μl of 50 mM potassium phosphate, pH 7.4, is added to each well and incubated at 30° C. for 90 min. The reaction is terminated by the addition of 75 μl of 2 N NaOH to each well. After 2 hr, the product, fluorescein, is measured by a fluorimeter using excitation and emission wavelengths of 485 and 538 nm, respectively.
(§2) Full concentration-response curves of the test compound are performed at least 3 times. The IC50 values are derived using a non-linear least squares curve-fitting program from Microsoft XLfit.

aldosterone synthase = molecular target: T2, aldosterone synthase (Homo sapiens, UniProt P19099); assay: cellular aldosterone production in NCI-H295R cells stimulated with Ang II (RIA/SPA); type: cell-based; details: human adrenocortical carcinoma NCI-H295R cells, 1 μM Ang II, 24 hr
T2 construct: host or cells: NCI-H295R
T2 sequence (P19099 25-503): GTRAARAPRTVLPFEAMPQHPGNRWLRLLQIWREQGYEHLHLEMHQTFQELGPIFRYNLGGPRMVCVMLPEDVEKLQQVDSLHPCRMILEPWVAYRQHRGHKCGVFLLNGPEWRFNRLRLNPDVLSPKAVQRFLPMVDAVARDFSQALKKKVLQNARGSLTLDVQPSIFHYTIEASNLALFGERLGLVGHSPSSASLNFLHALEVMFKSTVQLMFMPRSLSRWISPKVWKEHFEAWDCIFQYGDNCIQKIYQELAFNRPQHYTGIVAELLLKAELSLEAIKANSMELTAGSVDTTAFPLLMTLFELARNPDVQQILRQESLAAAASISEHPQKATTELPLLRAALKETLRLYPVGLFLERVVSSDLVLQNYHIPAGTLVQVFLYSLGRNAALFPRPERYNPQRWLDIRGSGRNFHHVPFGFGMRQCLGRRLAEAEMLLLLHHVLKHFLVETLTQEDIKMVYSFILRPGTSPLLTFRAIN
From the text: as §1
For in vitro measurement of aldosterone activity, human adrenocortical carcinoma NCI-H295R cells are seeded in NBS 96-well plates at a density of 25,000 cells/well in 100 μl of a growth medium containing DMEM/F12 supplemented with 10% FCS, 2.5% Nu-serum, 1 μg ITS/ml, and 1× antibiotic/antimycotic. The medium is changed after culturing for 3 days at 37° C. under an atmosphere of 5% CO2/95% air. On the following day, cells are rinsed with 100 μl of DMEM/F12 and incubated with 100 μl of treatment medium containing 1 μM Ang II and a compound at different concentrations in quadruplicate wells at 37° C. for 24 hr. At the end of incubation, 50 μl of medium is withdrawn from each well for measurement of aldosterone production by an RIA using mouse anti-aldosterone monoclonal antibodies.
Measurement of aldosterone activity can also be performed using a 96-well plate format. Each test sample is incubated with 0.02 μCi of D-[1,2,6,7-^3H(N)]aldosterone and 0.3 μg of anti-aldosterone antibody in phosphate-buffered saline (PBS) containing 0.1% Triton X-100, 0.1% bovine serum albumin, and 12% glycerol in a total volume of 200 μl at room temperature for 1 hr. Anti-mouse PVT SPA beads (50 μl) are then added to each well and incubated overnight at room temperature prior to counting in a Microbeta plate counter. The amount of aldosterone in each sample is calculated by comparing with a standard curve generated using known quantities of the hormone.
as §2

Row | inhibition at 10 µM (human aromatase) | IC50 (aldosterone synthase) | % inhibition of aromatase @ 10000 nM (human aromatase; 10 µM) | % inhibition of aromatase @ 10000 nM (human aromatase) | Structure (SMILES)
1 | 100% | 6 nM | – | – | CCCCOC(=O)C1(c2ccc(C#N)cc2OC)CCc2cncn21 (stereo not shown) [5-(4-Cyano-2-methoxyphenyl)-6,7-dihydro-5H-pyrrolo[1,2-c]imidazole-5-carboxylic acid butyl ester]
2 | 95% | 31 nM | – | – | C=Cc1cc(C#N)ccc1C1CCc2cncn21 (stereo not shown) [4-(6,7-Dihydro-5H-pyrrolo[1,2-c]imidazol-5-yl)-3-vinylbenzonitrile]
3 | 97% | 5 nM | – | – | COc1cc(C2CCc3cncn32)ccc1C#N (stereo not shown) [4-(6,7-Dihydro-5H-pyrrolo[1,2-c]imidazol-5-yl)-2-methoxybenzonitrile]
4 | 91% | – | – | – | N#Cc1ccc(C2(C(=O)OCc3ccc(F)cc3)CCc3cncn32)c(Cl)c1 (single isomer, unassigned) [5-(2-Chloro-4-cyanophenyl)-6,7-dihydro-5H-pyrrolo[1,2-c]imidazole-5-carboxylic acid 4-fluorobenzyl ester]
5 | 59% | 40 nM | – | – | Cc1noc(C)c1-c1cc(C#N)ccc1C1CCCCc2cncn21 (stereo not shown) [3-(3,5-Dimethylisoxazol-4-yl)-4-(6,7,8,9-tetrahydro-5H-imidazo[1,5-a]azepin-5-yl)benzonitrile]
6 | 96% | 5 nM | – | – | COc1cc(C#N)ccc1C1(C(=O)OCCOC(C)C)CCc2cncn21 (stereo not shown) [5-(4-Cyano-2-methoxyphenyl)-6,7-dihydro-5H-pyrrolo[1,2-c]imidazole-5-carboxylic acid 2-isopropoxyethyl ester]
7 | 99% | 11 nM | – | – | N#Cc1ccc(C2CC3(CC3)c3cncn32)c(F)c1 (stereo not shown) [5′-[2-fluoro-4-cyano-phenyl]-5′,6′-dihydrospiro[cyclopropane-1,7′-pyrrolo[1,2-c]imidazole]]
8 | 85% | 57 nM | – | – | COc1cc(C#N)ccc1C1(C(=O)N(C)Cc2ccc(F)cc2)CCc2cncn21 (stereo not shown) [5-(4-Cyano-2-methoxyphenyl)-6,7-dihydro-5H-pyrrolo[1,2-c]imidazole-5-carboxylic acid (4-fluorobenzyl)methylamide]
9 | 95% | 4 nM | – | – | C=C1CC(c2ccc(C#N)cc2F)n2cncc21 (stereo not shown) [3-Fluoro-4-(7-methylene-6,7-dihydro-5H-pyrrolo[1,2-c]imidazol-5-yl)benzonitrile]
10 | – | 357 nM | – | – | N#Cc1ccc(C2(C(=O)N3CCOCC3)CCc3cncn32)c(Cl)c1 (stereo not shown) [3-Chloro-4-[5-(morpholino-4-carbonyl)-6,7-dihydro-5H-pyrrolo[1,2-c]imidazol-5-yl]benzonitrile]
11 | 100% | 48 nM | – | – | N#Cc1ccc(C2CCCCc3cncn32)c(Cl)c1 (stereo not shown) [3-Chloro-4-(6,7,8,9-tetrahydro-5H-imidazo[1,5-a]azepin-5-yl)benzonitrile]
12 | – | – | 98% | – | CC1CCCC(c2ccc(C#N)cc2-c2ccc(F)cc2)n2cncc21 (single isomer, unassigned) [4′-Fluoro-6-(9-methyl-6,7,8,9-tetrahydro-5H-imidazo[1,5-a]az] [4′-Fluoro-6-(9-methyl-6,7,8,9-tetrahydro-5H-imidazo[1,5-a]azepin-5-yl)biphenyl-3-carbonitrile]
13 | 100% | 18 nM | – | – | COc1cc(C#N)ccc1C1CCc2cncn21 (stereo not shown) [4-(6,7-Dihydro-5H-pyrrolo[1,2-c]imidazol-5-yl)-3-methoxybenzonitrile]
14 | – | – | 98% | – | N#Cc1ccc(C2(C(=O)OCc3ccc(F)cc3)CCc3cncn32)c(Cl)c1 (single isomer, unassigned) [5-(2-Chloro-4-cyanophenyl)-6,7-dihydro-5H-pyrrolo[1,2-c]imid] [5-(2-Chloro-4-cyanophenyl)-6,7-dihydro-5H-pyrrolo[1,2-c]imidazole-5-carboxylic acid 4-fluorobenzyl ester]
15 | – | – | 97% | – | COc1ccc(CN(C)C(=O)C2(c3ccc(C#N)cc3Cl)CCc3cncn32)cc1 (single isomer, unassigned) [5-(2-chloro-4-cyanophenyl)-6,7-dihydro-5H-pyrrolo[1,2-c]imid] [5-(2-Chloro-4-cyanophenyl)-6,7-dihydro-5H-pyrrolo[1,2-c]imidazole-5-carboxylic acid (4-methoxybenzyl)methylamide]
16 | 96% | – | – | 96% | Cc1cc(C#N)ccc1C1CCc2cncn21 (single isomer, unassigned) [4-(6,7-Dihydro-5H-pyrrolo[1,2-c]imidazol-5-yl)-3-methylbenzonitrile]
17 | 100% | 11 nM | – | – | C=C1CC2(CCCCc3cncn32)c2ccc(C#N)cc21 (stereo not shown) [3′-Methylene-2′,3′,6,7,8,9-hexahydrospiro[imidazo[1,5-a]azepine-5,1′-indene]-5′-carbonitrile]
18 | 97% | 32 nM | – | – | C=CCC1(c2ccc(C#N)cc2Br)CCCCc2cncn21 (stereo not shown) [4-(5-Allyl-6,7,8,9-tetrahydro-5H-imidazo[1,5-a]azepin-5-yl)-3-bromobenzonitrile]
19 | – | 244 nM | – | – | COC(=O)C1(c2ccc(C#N)cc2C(F)(F)F)CCc2cncn21 (stereo not shown) [5-(4-Cyano-2-trifluoromethylphenyl)-6,7-dihydro-5H-pyrrolo[1,2-c]imidazole-5-carboxylic acid methyl ester]
20 | 81% | – | – | – | CC1CCCC(c2ccc(C#N)cc2-c2ccc(F)cc2)n2cncc21 (single isomer, unassigned) [4′-Fluoro-6-(9-methyl-6,7,8,9-tetrahydro-5H-imidazo[1,5-a]azepin-5-yl)biphenyl-3-carbonitrile]
21 | 98% | – | – | – | COc1ccc(CN(C)C(=O)C2(c3ccc(C#N)cc3Cl)CCc3cncn32)cc1 (single isomer, unassigned) [5-(2-Chloro-4-cyanophenyl)-6,7-dihydro-5H-pyrrolo[1,2-c]imidazole-5-carboxylic acid (4-methoxybenzyl)methylamide]
22 | – | 270 nM | – | – | CC1(c2ccc(C#N)cc2-c2ccccc2)CCCc2cncn21 (stereo not shown) [6-(5-Methyl-5,6,7,8-tetrahydroimidazo[1,5-a]pyridin-5-yl)biphenyl-3-carbonitrile]

Row | Structure (SMILES) | inhibition at 10 µM (human aromatase) | IC50 (aldosterone synthase) | % inhibition of aromatase @ 10000 nM (human aromatase; 10 µM) | % inhibition of aromatase @ 10000 nM (human aromatase)
23 | N#Cc1ccc(C2CCCCc3cncn32)cc1Br (stereo not shown) [2-Bromo-4-(6,7,8,9-tetrahydro-5H-imidazo[1,5-a]azepin-5-yl)benzonitrile] | 100% | 23 nM | – | –
